Measured values published in ChEMBL document CHEMBL3880436, “Pharmaceutical composition containing optically active compound having thrombopoietin receptor agonist activity, and intermediate therefor” (2013).
The source made the active and inactive calls. The calls are words filed in the database; no cut-off is given here.

Key:
Mus musculus = assay: Increase in platelet levels in mouse expressing human transmembrane site of TPO receptor administered as po bid for 2 weeks measured after 3 days to 3 weeks post initiation of initial dose relative to vehicle-treated control; format: functional, organism-based
[1] = target: T1, Thrombopoietin receptor (Homo sapiens) (UniProt P40238); assay: Agonist activity at human TPO receptor expressed in mouse BaF-B03 cells assessed as induction of cell proliferation after 20 hrs by WST-1 assay; format: cell-based
T1 sequence (whole entry): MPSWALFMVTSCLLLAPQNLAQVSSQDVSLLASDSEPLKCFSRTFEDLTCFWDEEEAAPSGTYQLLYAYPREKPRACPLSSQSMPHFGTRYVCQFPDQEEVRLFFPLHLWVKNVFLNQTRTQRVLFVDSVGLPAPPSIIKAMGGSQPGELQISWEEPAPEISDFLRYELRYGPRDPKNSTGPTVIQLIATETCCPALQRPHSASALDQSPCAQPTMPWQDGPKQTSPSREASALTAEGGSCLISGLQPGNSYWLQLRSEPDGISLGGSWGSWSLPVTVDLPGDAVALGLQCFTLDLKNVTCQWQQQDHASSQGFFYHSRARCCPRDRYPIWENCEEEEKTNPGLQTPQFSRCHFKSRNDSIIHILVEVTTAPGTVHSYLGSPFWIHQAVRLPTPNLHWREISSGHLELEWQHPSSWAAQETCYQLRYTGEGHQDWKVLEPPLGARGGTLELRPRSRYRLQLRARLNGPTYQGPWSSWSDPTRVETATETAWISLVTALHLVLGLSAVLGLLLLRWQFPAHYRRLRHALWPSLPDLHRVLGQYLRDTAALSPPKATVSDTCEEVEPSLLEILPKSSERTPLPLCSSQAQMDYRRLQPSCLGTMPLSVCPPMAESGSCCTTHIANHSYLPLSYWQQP

CCCCCCO[C@H](C)c1cccc(-c2csc(NC(=O)c3cc(Cl)c(/C=C(\C)C(=O)O)c(Cl)c3)n2)c1OC
Activity (Mus musculus): Active | ED50 [1]: 1.4 nM

CCCO[C@H](c1cccc(-c2csc(NC(=O)c3cc(Cl)c(/C=C(\C)C(=O)O)c(Cl)c3)n2)c1OC)C(C)(C)C
Activity (Mus musculus): Active

CCCCCCO[C@@H](C)c1cccc(-c2csc(NC(=O)c3cc(Cl)c(/C=C(\C)C(=O)O)c(Cl)c3)n2)c1OC
Activity (Mus musculus): Active | ED50 [1]: 1.09 nM

CCCCCC[C@@H](OC)c1cccc(-c2csc(NC(=O)c3cc(Cl)c(/C=C(\C)C(=O)O)c(Cl)c3)n2)c1OC
Activity (Mus musculus): Active | ED50 [1]: 3.09 nM

CCCCCC[C@H](OC)c1cccc(-c2csc(NC(=O)c3cc(Cl)c(/C=C(\C)C(=O)O)c(Cl)c3)n2)c1OC
Activity (Mus musculus): Active | ED50 [1]: 2.08 nM
